From PMC5218480 (PLoS ONE, 2017)

System: MV-4-11 cells
Assay: Gene expression microarray analysis (Affymetrix PrimeView) and GSEA
Assay type: cell-based, human
Set-up: RFU PODN (11730768_x_at) / Fold change /veh PODN (11730768_x_at) / RFU LINC00158 (11744669_a_at) / Fold change /veh LINC00158 (11744669_a_at) / RFU DUSP10 (11751237_a_at) / Fold change /veh DUSP10 (11751237_a_at) / RFU ID3 (11757404_x_at) / Fold change /veh ID3 (11757404_x_at) / RFU PLEKHG5 (11737974_s_at) / Fold change /veh PLEKHG5 (11737974_s_at) / RFU LRRC4B (11730491_at) / Fold change /veh LRRC4B (11730491_at) / RFU GIMAP4 (11747438_a_at) / Fold change /veh GIMAP4 (11747438_a_at) / RFU KRT8 (11758183_x_at) / Fold change /veh KRT8 (11758183_x_at) / RFU CNN1 (11734310_a_at) / Fold change /veh CNN1 (11734310_a_at) / RFU VPS37D (11726825_at) / Fold change /veh VPS37D (11726825_at) / RFU C10orf10 (11716522_x_at) / Fold change /veh C10orf10 (11716522_x_at) / RFU KIR2DL2 /// KIR2DL4 /// KIR2DL5A /// KIR2DL5B /// KIR2DS1 /// KIR2DS2 /// KIR2DS3 /// KIR2DS4 /// KIR3DL3 /// KIR3DL3 /// KIR3DS1 (11738374_at) / Fold change /veh KIR2DL2 /// KIR2DL4 /// KIR2DL5A /// KIR2DL5B /// KIR2DS1 /// KIR2DS2 /// KIR2DS3 /// KIR2DS4 /// KIR3DL3 /// KIR3DL3 /// KIR3DS1 (11738374_at) / RFU C1QL1 (11718748_at) / Fold change /veh C1QL1 (11718748_at) / RFU TMPRSS4 (11747572_a_at) / Fold change /veh TMPRSS4 (11747572_a_at) / RFU HAMP (11756126_x_at) / Fold change /veh HAMP (11756126_x_at) / RFU RNFT2 (11725882_a_at) / Fold change /veh RNFT2 (11725882_a_at) / RFU NR4A2 (11747474_a_at) / Fold change /veh NR4A2 (11747474_a_at) / RFU ABCC12 (11746883_a_at) / Fold change /veh ABCC12 (11746883_a_at) / RFU TMEM136 (11760407_x_at) / Fold change /veh TMEM136 (11760407_x_at) / RFU CLDN22 /// WWC2 (11732394_at) / Fold change /veh CLDN22 /// WWC2 (11732394_at) / RFU HLA-DPB1 (11760878_x_at) / Fold change /veh HLA-DPB1 (11760878_x_at) / RFU SPINT1 (11716480_a_at) / Fold change /veh SPINT1 (11716480_a_at) / RFU GAP43 (11754022_s_at) / Fold change /veh GAP43 (11754022_s_at) / RFU A4GNT (11735810_at) / Fold change /veh A4GNT (11735810_at) / RFU PRB3 (11715151_x_at) / Fold change /veh PRB3 (11715151_x_at) / RFU TUBB4B (11761932_at) / Fold change /veh TUBB4B (11761932_at) / RFU CAPN14 (11732068_a_at) / Fold change /veh CAPN14 (11732068_a_at) / RFU TMCC2 (11721928_a_at) / Fold change /veh TMCC2 (11721928_a_at) / RFU IRGQ (11745062_a_at) / Fold change /veh IRGQ (11745062_a_at) / RFU FAM174B (11720279_a_at) / Fold change /veh FAM174B (11720279_a_at) / RFU TMPRSS4 (11748680_a_at) / Fold change /veh TMPRSS4 (11748680_a_at) / RFU FAM212B (11763350_a_at) / Fold change /veh FAM212B (11763350_a_at) / RFU PLEKHG5 (11743358_a_at) / Fold change /veh PLEKHG5 (11743358_a_at) / RFU ZSCAN30 (11745921_a_at) / Fold change /veh ZSCAN30 (11745921_a_at) / RFU CMKLR1 (11741424_a_at) / Fold change /veh CMKLR1 (11741424_a_at) / RFU LOC101060620 /// MAPK8IP1 (11723275_at) / Fold change /veh LOC101060620 /// MAPK8IP1 (11723275_at) / RFU SPTSSB (11747773_x_at) / Fold change /veh SPTSSB (11747773_x_at) / RFU PRSS12 (11739890_at) / Fold change /veh PRSS12 (11739890_at) / RFU BIN1 (11741810_x_at) / Fold change /veh BIN1 (11741810_x_at) / RFU WNT11 (11732464_a_at) / Fold change /veh WNT11 (11732464_a_at) / RFU C10orf10 (11716521_a_at) / Fold change /veh C10orf10 (11716521_a_at) / RFU C5orf56 (11738089_at) / Fold change /veh C5orf56 (11738089_at) / RFU CYB561 (11721691_x_at) / Fold change /veh CYB561 (11721691_x_at) / RFU ANKRD19P (11752326_a_at) / Fold change /veh ANKRD19P (11752326_a_at) / RFU OR2T12 /// OR2T33 /// OR2T8 (11738714_s_at) / Fold change /veh OR2T12 /// OR2T33 /// OR2T8 (11738714_s_at) / RFU VCAN (11748164_a_at) / Fold change /veh VCAN (11748164_a_at) / RFU JSRP1 (11732532_at) / Fold change /veh JSRP1 (11732532_at) / RFU KRTAP10-11 (11738290_x_at) / Fold change /veh KRTAP10-11 (11738290_x_at) / RFU MYO3A (11730013_a_at) / Fold change /veh MYO3A (11730013_a_at) / RFU EBF3 (11725865_a_at) / Fold change /veh EBF3 (11725865_a_at) / RFU CAMK2N1 (11719241_x_at) / Fold change /veh CAMK2N1 (11719241_x_at) / RFU C5orf56 (11738088_a_at) / Fold change /veh C5orf56 (11738088_a_at) / RFU OLFML3 (11715873_a_at) / Fold change /veh OLFML3 (11715873_a_at) / RFU LOC100653217 /// NTM (11731650_a_at) / Fold change /veh LOC100653217 /// NTM (11731650_a_at) / RFU MAPK11 (11762145_a_at) / Fold change /veh MAPK11 (11762145_a_at) / RFU FIZ1 (11724087_x_at) / Fold change /veh FIZ1 (11724087_x_at) / RFU OASL (11726364_x_at) / Fold change /veh OASL (11726364_x_at) / RFU SOX15 (11748057_x_at) / Fold change /veh SOX15 (11748057_x_at) / RFU CD79A (11719716_a_at) / Fold change /veh CD79A (11719716_a_at) / RFU HIST1H1D (11736915_at) / Fold change /veh HIST1H1D (11736915_at) / RFU CASKIN2 (11723855_a_at) / Fold change /veh CASKIN2 (11723855_a_at) / RFU LOC730098 (11760151_x_at) / Fold change /veh LOC730098 (11760151_x_at) / RFU OR4N2 (11742367_at) / Fold change /veh OR4N2 (11742367_at) / RFU PRRT2 (11749266_a_at) / Fold change /veh PRRT2 (11749266_a_at) / RFU SNX32 (11753110_a_at) / Fold change /veh SNX32 (11753110_a_at) / RFU CDHR5 (11726645_a_at) / Fold change /veh CDHR5 (11726645_a_at) / RFU RCAN1 (11760418_a_at) / Fold change /veh RCAN1 (11760418_a_at) / RFU FAM167A (11723789_a_at) / Fold change /veh FAM167A (11723789_a_at) / RFU FAM26E (11764081_at) / Fold change /veh FAM26E (11764081_at) / RFU ISYNA1 (11749810_s_at) / Fold change /veh ISYNA1 (11749810_s_at) / RFU ACY1 (11761880_at) / Fold change /veh ACY1 (11761880_at) / RFU 11764098_at / Fold change /veh 11764098_at / RFU SAMD14 (11745864_x_at) / Fold change /veh SAMD14 (11745864_x_at) / RFU NPB (11741838_a_at) / Fold change /veh NPB (11741838_a_at) / RFU TMPRSS6 (11731388_a_at) / Fold change /veh TMPRSS6 (11731388_a_at) / RFU KRTAP10-2 (11738614_at) / Fold change /veh KRTAP10-2 (11738614_at) / RFU ARHGAP8 /// PRR5-ARHGAP8 (11727945_x_at) / Fold change /veh ARHGAP8 /// PRR5-ARHGAP8 (11727945_x_at) / RFU KRTAP5-7 /// NADSYN1 (11734609_at) / Fold change /veh KRTAP5-7 /// NADSYN1 (11734609_at) / RFU RASL12 (11751679_a_at) / Fold change /veh RASL12 (11751679_a_at) / RFU CDKN2B (11736163_a_at) / Fold change /veh CDKN2B (11736163_a_at) / RFU PRF1 (11729649_at) / Fold change /veh PRF1 (11729649_at) / RFU, ZNF638 /// ZNF638-IT1 / Fold change vs veh, ZNF638 /// ZNF638-IT1 / RFU, PANK3 / Fold change vs veh, PANK3 / RFU, SH3YL1 / Fold change vs veh, SH3YL1 / RFU, ZEB2 / Fold change vs veh, ZEB2 / RFU, NRIP1 / Fold change vs veh, NRIP1 / RFU, PTTG1IP / Fold change vs veh, PTTG1IP / RFU, CAPN2 / Fold change vs veh, CAPN2 / RFU, MED14 / Fold change vs veh, MED14 / RFU, SNORA58 / Fold change vs veh, SNORA58 / RFU, C1orf63 / Fold change vs veh, C1orf63 / RFU, LRRFIP1 / Fold change vs veh, LRRFIP1 / RFU, NDUFAF7 / Fold change vs veh, NDUFAF7 / RFU, SLC12A2 / Fold change vs veh, SLC12A2 / RFU, IBTK / Fold change vs veh, IBTK / RFU, ESF1 / Fold change vs veh, ESF1 / Fold change vs veh, TMEM50B / RFU, TAOK1 / Fold change vs veh, TAOK1 / RFU, ACBD3 / Fold change vs veh, ACBD3 / RFU, TMA16 / Fold change vs veh, TMA16 / RFU, RWDD3 / Fold change vs veh, RWDD3 / RFU, BCAT1 / Fold change vs veh, BCAT1 / RFU, EDEM3 / Fold change vs veh, EDEM3 / RFU, TMEM33 / Fold change vs veh, TMEM33 / RFU, WDR75 / Fold change vs veh, WDR75 / RFU, AHCTF1 / Fold change vs veh, AHCTF1 / RFU, TFRC / Fold change vs veh, TFRC / RFU, ZDHHC17 / Fold change vs veh, ZDHHC17 / RFU, NOM1 / Fold change vs veh, NOM1 / RFU, ARL8B / Fold change vs veh, ARL8B / RFU, ZBTB11 / Fold change vs veh, ZBTB11 / RFU, TAMM41 / Fold change vs veh, TAMM41 / RFU, KIAA1704 /// LOC100996395 / Fold change vs veh, KIAA1704 /// LOC100996395 / RFU, ING1 / Fold change vs veh, ING1 / RFU, TRMT61B / Fold change vs veh, TRMT61B / RFU, FUBP3 / Fold change vs veh, FUBP3 / RFU, TP53 / Fold change vs veh, TP53 / RFU, TNKS2 / Fold change vs veh, TNKS2 / RFU, ZFP14 / Fold change vs veh, ZFP14 / RFU, ACTR2 / Fold change vs veh, ACTR2 / RFU, PPP3R1 / Fold change vs veh, PPP3R1 / RFU, PIK3R1 / Fold change vs veh, PIK3R1 / RFU, HNRNPA1 / Fold change vs veh, HNRNPA1 / RFU, RNF170 / Fold change vs veh, RNF170 / RFU, ZNF28 / Fold change vs veh, ZNF28 / RFU, RNGTT / Fold change vs veh, RNGTT / RFU, OGT / Fold change vs veh, OGT / RFU, BRD1 / Fold change vs veh, BRD1 / RFU, MARS / Fold change vs veh, MARS / RFU, ZNF655 / Fold change vs veh, ZNF655 / RFU, FAHD1 / Fold change vs veh, FAHD1 / RFU, BDP1 / Fold change vs veh, BDP1 / RFU, LRRCC1 / Fold change vs veh, LRRCC1 / RFU, ARID1A / Fold change vs veh, ARID1A / RFU, ZNF146 / Fold change vs veh, ZNF146 / RFU, ZNF330 / Fold change vs veh, ZNF330 / RFU, GPN3 / Fold change vs veh, GPN3 / RFU, C9orf123 / Fold change vs veh, C9orf123 / RFU, N4BP2L2 / Fold change vs veh, N4BP2L2 / RFU, ARFIP1 / Fold change vs veh, ARFIP1 / RFU, FAM179B / Fold change vs veh, FAM179B / RFU, BCL10 / Fold change vs veh, BCL10 / RFU, UHRF1BP1L / Fold change vs veh, UHRF1BP1L / RFU, BET1 / Fold change vs veh, BET1 / RFU, CNOT2 / Fold change vs veh, CNOT2 / RFU, ZNF268 / Fold change vs veh, ZNF268 / Fold change vs veh, ZNF507 / RFU, DGCR2 / Fold change vs veh, DGCR2 / RFU, WDSUB1 / Fold change vs veh, WDSUB1 / Fold change vs veh, HSP90B1 /// MIR3652 / RFU, ADSS / Fold change vs veh, ADSS / RFU, GK / Fold change vs veh, GK / RFU, ZNF148 / Fold change vs veh, ZNF148 / RFU, TAF9 / Fold change vs veh, TAF9 / RFU, SLC1A5 / Fold change vs veh, SLC1A5 / RFU, SLMO2 / Fold change vs veh, SLMO2 / RFU, ABCC4 / Fold change vs veh, ABCC4 / RFU, LOC101060439 /// RAP1B / Fold change vs veh, LOC101060439 /// RAP1B / RFU, RFX7 / Fold change vs veh, RFX7 / RFU, GTPBP10 / Fold change vs veh, GTPBP10 / RFU, CNEP1R1 / Fold change vs veh, CNEP1R1 / RFU, BIVM-ERCC5 /// ERCC5 / Fold change vs veh, BIVM-ERCC5 /// ERCC5 / RFU, ILF3 / Fold change vs veh, ILF3 / RFU 11762660_at / Fold change /veh 11762660_at / RFU VCAN (11757783_s_at) / Fold change /veh VCAN (11757783_s_at) / RFU DDX43 (11728927_at) / Fold change /veh DDX43 (11728927_at) / RFU KRT8 (11758188_x_at) / Fold change /veh KRT8 (11758188_x_at) / RFU NKD1 (11759106_at) / Fold change /veh NKD1 (11759106_at) / RFU SRD5A1 (11742802_a_at) / Fold change /veh SRD5A1 (11742802_a_at) / RFU TPSAB1 /// TPSB2 (11721975_s_at) / Fold change /veh TPSAB1 /// TPSB2 (11721975_s_at) / RFU GSTM3 (11746129_a_at) / Fold change /veh GSTM3 (11746129_a_at) / RFU IL23R (11737362_x_at) / Fold change /veh IL23R (11737362_x_at) / RFU TMEM51 (11727254_a_at) / Fold change /veh TMEM51 (11727254_a_at) / RFU PIWIL2 (11732686_x_at) / Fold change /veh PIWIL2 (11732686_x_at) / RFU ORM1 (11744905_x_at) / Fold change /veh ORM1 (11744905_x_at) / RFU CCDC152 (11743942_at) / Fold change /veh CCDC152 (11743942_at) / RFU ECM1 (11717891_a_at) / Fold change /veh ECM1 (11717891_a_at) / RFU IL23R (11748794_a_at) / Fold change /veh IL23R (11748794_a_at) / RFU TNFAIP8L3 (11732012_x_at) / Fold change /veh TNFAIP8L3 (11732012_x_at) / RFU MBOAT4 (11741988_at) / Fold change /veh MBOAT4 (11741988_at) / RFU 11764193_at / Fold change /veh 11764193_at / RFU TMEM53 (11763286_at) / Fold change /veh TMEM53 (11763286_at) / RFU MAGEB2 (11727129_at) / Fold change /veh MAGEB2 (11727129_at) / RFU TMEM200A (11744735_a_at) / Fold change /veh TMEM200A (11744735_a_at) / RFU CCDC152 (11751479_a_at) / Fold change /veh CCDC152 (11751479_a_at) / RFU FAM211A (11726209_a_at) / Fold change /veh FAM211A (11726209_a_at) / RFU RGS16 (11746705_a_at) / Fold change /veh RGS16 (11746705_a_at) / RFU VCAN (11755009_s_at) / Fold change /veh VCAN (11755009_s_at) / RFU RHOB (11743442_s_at) / Fold change /veh RHOB (11743442_s_at) / RFU RGS16 (11720943_a_at) / Fold change /veh RGS16 (11720943_a_at) / RFU RGS16 (11720944_at) / Fold change /veh RGS16 (11720944_at) / RFU, VPS4B / Fold change vs veh, VPS4B / RFU, CREB1 / Fold change vs veh, CREB1 / RFU, DNAJC13 / Fold change vs veh, DNAJC13 / RFU, GNAQ / Fold change vs veh, GNAQ / RFU, CDK5R1 / Fold change vs veh, CDK5R1 / RFU, ZRANB3 / Fold change vs veh, ZRANB3 / RFU, CUL4A / Fold change vs veh, CUL4A / RFU, CCNY / Fold change vs veh, CCNY / RFU, UFL1 / Fold change vs veh, UFL1 / RFU, COG3 / Fold change vs veh, COG3 / RFU, DIAPH2 / Fold change vs veh, DIAPH2 / RFU, SKA2 / Fold change vs veh, SKA2 / RFU, AFF3 / Fold change vs veh, AFF3 / RFU, LMF1 / Fold change vs veh, LMF1 / RFU, IPO11 / Fold change vs veh, IPO11 / RFU, DFFB / Fold change vs veh, DFFB / RFU, FOXP1 / Fold change vs veh, FOXP1 / RFU, CARD8 / Fold change vs veh, CARD8 / RFU, STRN3 / Fold change vs veh, STRN3 / RFU, ADK / Fold change vs veh, ADK / RFU, RASSF2 / Fold change vs veh, RASSF2 / RFU, WIPF1 / Fold change vs veh, WIPF1 / RFU, LARP1B / Fold change vs veh, LARP1B / RFU, RASA1 / Fold change vs veh, RASA1 / RFU, RB1 / Fold change vs veh, RB1 / RFU, PPFIA1 / Fold change vs veh, PPFIA1 / RFU, MAT2A / Fold change vs veh, MAT2A / RFU, CCT5 / Fold change vs veh, CCT5 / RFU, WDR92 / Fold change vs veh, WDR92 / RFU, CUX1 / Fold change vs veh, CUX1 / RFU, TTC7A / Fold change vs veh, TTC7A / RFU, TMEM135 / Fold change vs veh, TMEM135 / RFU, DEPTOR / Fold change vs veh, DEPTOR / RFU, CPM / Fold change vs veh, CPM / RFU, DNAJB6 / Fold change vs veh, DNAJB6 / RFU, CACNA2D3 / Fold change vs veh, CACNA2D3 / RFU, DTX4 / Fold change vs veh, DTX4 / RFU, TFCP2 / Fold change vs veh, TFCP2 / RFU, GMCL1 /// GMCL1P1 / Fold change vs veh, GMCL1 /// GMCL1P1 / RFU, AEBP2 / Fold change vs veh, AEBP2 / RFU, SNHG1 /// SNORD22 /// SNORD25 /// SNORD26 /// SNORD27 /// SNORD28 /// SNORD29 /// SNORD31 / Fold change vs veh, SNHG1 /// SNORD22 /// SNORD25 /// SNORD26 /// SNORD27 /// SNORD28 /// SNORD29 /// SNORD31 / Fold change (Aza/veh), C12orf56 (ProbeSet 11735607_a_at) / Fold change (ACY-1035/veh), C12orf56 (ProbeSet 11735607_a_at) / Fold change (Aza/veh), FGFR1OP (ProbeSet 11751329_s_at) / Fold change (ACY-1035/veh), FGFR1OP (ProbeSet 11751329_s_at) / Fold change (Aza/veh), VPS36 (ProbeSet 11739960_a_at) / Fold change (ACY-1035/veh), VPS36 (ProbeSet 11739960_a_at) / RFU SYPL1 (11715823_x_at) / Fold change /veh SYPL1 (11715823_x_at) / RFU IGFBP7 (11715501_s_at) / Fold change /veh IGFBP7 (11715501_s_at) / RFU REEP3 (11722064_at) / Fold change /veh REEP3 (11722064_at) / RFU IGLL1 (11728026_x_at) / Fold change /veh IGLL1 (11728026_x_at): dose or concentration left out as unconfirmed
Details: ProbeSet 11763895_x_at; LIST B

For `Nc1ccc(-c2cccs2)cc1NC(=O)c1ccc2c(c1)cc(C1CC1)n2CCN1CCOCC1` [ACY-1035], the “RFU, SNORA58” value was 14.97 RFU.
